Patent EP0939649B1, “ADDITIVE, IN PARTICULAR IN THE FORM OF AN EMULSION CONTAINING A TRIVALENT METAL CATION AND VACCINE COMPOSITION CONTAINING SAME” (priority 1996, dated 1998)

Experiments:
[1] = system: sérum albumine bovine (BSA); experiment: Immunostimulant effect of adjuvants: IgG1/IgG2a antibody response in mice vaccinated subcutaneously with BSA antigen; type: in vivo, souris; conditions: 21 days after vaccination, 100 µl s.c. per mouse, 10 µg BSA, salts at optimal concentration; for réponse lgG2a: represents cellular response; for réponse lgG1: represents humoral response
Description: Ces compositions thérapeutiques comprennent, à titre d'antigène de la sérum albumine bovine (BSA), Grade V, Sigma.
Ces compositions thérapeutiques (dose/souris) d'un volume de 100 µl mises en oeuvre comprenaient 10µg d'antigène et ont été injectées par voie sous-cutanée.
Les résultats ont été obtenus 21 jours après vaccination:
Les réponses IgG 1 sont représentatives de la réponse humorale,
Les réponses IgG 2a sont représentatives de la réponse cellulaire.

[2] = Local reactions (lesions and granulomas) at the injection site after subcutaneous injection in mice; type: in vivo, souris; conditions: 8 days after s.c. injection, 1000 µl, 10 µg BSA
Description: On a injecté à différents lots comprenant chacun 5 souris, une composition thérapeutique d'un volume de 1000 µl, comprenant 10 µg d'antigène (BSA), par voie sous-cutanée. On a évalué les réactions locales (lésions et granulomes) 8 jours après injection.

Molecule | réponse lgG2a [1] | réponse lgG1 [1] | réactions locales (lésions et granulomes) ([2]; souris 1) | réactions locales (lésions et granulomes) ([2]; souris 2) | réactions locales (lésions et granulomes) ([2]; souris 3) | réactions locales (lésions et granulomes) ([2]; souris 5)
[OH][Al]([OH])[OH] [AlOH, hydroxyde d'Aluminium] | <1000 | 8000 | – | – | – | –
CC(=O)[O-].[Al+3].[OH-].[OH-] [C2H5AlO4 (forme soluble), acétate d'Aluminium soluble (C2H5AlO4)] | 8000 | 64000 | 0 | 0 | 0 | 0
CC(=O)[O-].CC(=O)[O-].[Al+3].[OH-] [C4H7AlO5 (forme insoluble), forme insoluble d'acétate d'Aluminium (C4H7AlO5)] | <1000 | <1000 | – | – | – | –
phosphate d'Aluminium [AlPO4] | <1000 | <1000 | – | – | – | –
salicylate d'Aluminium | 6000 | 48000 | – | – | – | –
